Experimental data as given in patent US11912693B2, “Compounds for modulating S1P1 activity and methods of using the same” (TREVENA, INC., priority 2017, dated 2024).

What was measured:
[1] = target: T1, human sphingosine-1-phosphate receptor 1 (S1P1) (Homo sapiens (Human), UniProt P21453); experiment: Inhibition of cAMP production (HTRF cAMP HiRange), S1P1 CHO-K1 cells; type: cell-based; details: for Emax: CHO-K1, efficacy (SPAN) normalized to fingolimod, read-out: hS1P1 cAMP SPAN; for hS1P1 cAMP pEC50: inhibition of cAMP production, S1P1 CHO-K1 cells
Summary of the method: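 CHO-K1 cells stably co-expressing human S1P1 (C-terminal Prolink tag) and EA-β-arrestin2 were grown in AssayComplete Media 6 at 37° C. and 5% CO2, plated, and incubated overnight. Agonist-driven inhibition of intracellular cAMP was read by TR-FRET with the HTRF cAMP HiRange kit on a PheraStar reader. Potency is pEC50, and efficacy (SPAN) is normalized to fingolimod.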
Target sequence in this assay (P21453 whole entry, looked up): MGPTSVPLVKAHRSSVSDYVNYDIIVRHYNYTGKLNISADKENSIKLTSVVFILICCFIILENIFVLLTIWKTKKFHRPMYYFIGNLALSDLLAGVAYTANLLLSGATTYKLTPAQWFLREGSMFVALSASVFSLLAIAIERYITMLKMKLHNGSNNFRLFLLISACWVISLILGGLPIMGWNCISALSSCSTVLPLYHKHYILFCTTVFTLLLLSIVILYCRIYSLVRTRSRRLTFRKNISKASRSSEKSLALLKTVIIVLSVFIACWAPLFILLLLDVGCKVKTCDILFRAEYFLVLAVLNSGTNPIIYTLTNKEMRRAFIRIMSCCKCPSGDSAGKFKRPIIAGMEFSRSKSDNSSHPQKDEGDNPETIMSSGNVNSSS

[2] = target: T1, human sphingosine-1-phosphate receptor 1 (S1P1); experiment: β-Arrestin2 recruitment assay (PathHunter), S1P1 CHO-K1 cells; type: cell-based; details: for Emax: CHO-K1, efficacy (SPAN) normalized to fingolimod, read-out: hS1P1 B-arrestin2 SPAN; for hS1P1 B-arrestin2 pEC50: β-arrestin2 recruitment, S1P1 CHO-K1 cells
Summary of the method: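 Enzyme-fragment complementation read-out: agonist-driven β-arrestin2 binding to ProLink-tagged human S1P1 in stable CHO-K1 cells restores β-galactosidase, measured 1 h at room temperature after a 60 min 37° C. compound incubation. Potency as pEC50, efficacy relative to fingolimod (SPAN).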
Target sequence in this assay (P21453 whole entry, looked up): as above
Target sequence in this assay (P32121 whole entry partner, looked up): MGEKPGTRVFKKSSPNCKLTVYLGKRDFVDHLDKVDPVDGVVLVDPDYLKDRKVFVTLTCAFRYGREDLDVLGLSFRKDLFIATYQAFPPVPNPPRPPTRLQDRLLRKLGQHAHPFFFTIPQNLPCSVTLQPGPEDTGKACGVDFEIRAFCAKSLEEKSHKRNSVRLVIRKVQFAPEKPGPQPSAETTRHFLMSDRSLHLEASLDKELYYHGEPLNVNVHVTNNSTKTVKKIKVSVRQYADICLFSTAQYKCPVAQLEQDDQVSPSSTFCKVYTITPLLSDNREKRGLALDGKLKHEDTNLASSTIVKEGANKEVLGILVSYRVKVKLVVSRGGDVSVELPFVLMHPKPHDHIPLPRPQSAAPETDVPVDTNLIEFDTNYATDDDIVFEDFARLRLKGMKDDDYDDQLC

Row | SMILES | Emax [1] | hS1P1 cAMP pEC50 [1] | Emax [2] | hS1P1 B-arrestin2 pEC50 [2]
1 | Cc1ccccc1-c1cc(-c2ccc3c(c2)nnn3C(C)C)n(C)c1 [Compound 517, 5-[1-methyl-4-(2-methylphenyl)-1H-pyrrol-2-yl]-1-(propan-2-yl)-1H-1,2,3-benzotriazole] | < 75% | <6.5 | < 75% | >5
2 | Cc1cn(C)nc1-c1noc(-c2ccc3c(c2)nnn3CC(C)(C)O)n1 [Compound 518, 1-{5-[3-(1,4-dimethyl-1H-pyrazol-3-yl)-1,2,4-oxadiazol-5-yl]-1H-1,2,3-benzotriazol-1-yl}-2-methylpropan-2-ol] | – | <6.5 | – | <5
3 | CCC1(CC)CC(=O)c2cc(-c3nc(-c4ccc5ncccc5c4)no3)ccc2O1 [Compound 521, 2,2-diethyl-6-(3-(quinolin-6-yl)-1,2,4-oxadiazol-5-yl)chroman-4-one] | – | <6.5 | – | <5
4 | CCC1(CC)CC(=O)c2cc(-c3nc(-c4ccc5cnccc5c4)no3)ccc2O1 [Compound 522, 2,2-diethyl-6-(3-(isoquinolin-6-yl)-1,2,4-oxadiazol-5-yl)chroman-4-one] | – | <6.5 | – | <5
5 | COc1ccc(-c2nc(-c3ccc4c(c3)nnn4CC(C)(C)CO)no2)c(C)c1 [Compound 523, 3-(5-(5-(4-methoxy-2-methylphenyl)-1,2,4-oxadiazol-3-yl)-1H-benzo[d][1,2,3]triazol-1-yl)-2,2-dimethylpropan-1-ol] | – | <6.5 | – | <5
6 | Cc1ccsc1-c1nc(-c2ccc3c(c2)nnn3CC(C)(C)CO)no1 [Compound 524, 2,2-dimethyl-3-(5-(5-(3-methylthiophen-2-yl)-1,2,4-oxadiazol-3-yl)-1H-benzo[d][1,2,3]triazol-1-yl)propan-1-ol] | – | >6.5 | – | >5
7 | COc1ccccc1-c1nc(-c2ccc3c(c2)nnn3CC(C)(C)CO)no1 [Compound 525, 3-(5-(5-(2-methoxyphenyl)-1,2,4-oxadiazol-3-yl)-1H-benzo[d][1,2,3]triazol-1-yl)-2,2-dimethylpropan-1-ol] | – | <6.5 | – | <5
8 | CC(C)(CO)Cn1nnc2cc(-c3noc(-c4ccccc4Cl)n3)ccc21 [Compound 526, 3-(5-(5-(2-chlorophenyl)-1,2,4-oxadiazol-3-yl)-1H-benzo[d][1,2,3]triazol-1-yl)-2,2-dimethylpropan-1-ol] | – | <6.5 | – | <5
9 | CCc1ccccc1-c1nc(-c2ccc3c(c2)nnn3CC(C)(C)CO)no1 [Compound 527, 3-(5-(5-(2-ethylphenyl)-1,2,4-oxadiazol-3-yl)-1H-benzo[d][1,2,3]triazol-1-yl)-2,2-dimethylpropan-1-ol] | – | <6.5 | – | <5
10 | CC(C)(CO)Cn1nnc2cc(-c3noc(-c4ccncc4C(F)(F)F)n3)ccc21 [Compound 528, 2,2-dimethyl-3-(5-(5-(3-(trifluoromethyl)pyridin-4-yl)-1,2,4-oxadiazol-3-yl)-1H-benzo[d][1,2,3]triazol-1-yl)propan-1-ol] | – | <6.5 | – | <5
11 | CC(C)(CO)Cn1nnc2cc(-c3noc(-c4cnccc4C(F)(F)F)n3)ccc21 [Compound 529, 2,2-dimethyl-3-(5-(5-(4-(trifluoromethyl)pyridin-3-yl)-1,2,4-oxadiazol-3-yl)-1H-benzo[d][1,2,3]triazol-1-yl)propan-1-ol] | – | <6.5 | – | >5
12 | CCC1(CC)CC(=O)c2cc(-c3ncc(-c4ccccn4)cn3)ccc2O1 [Compound 530, 2,2-diethyl-6-(5-(pyridin-2-yl)pyrimidin-2-yl)chroman-4-one] | – | <6.5 | – | <5
13 | COc1cc(NC(C)=O)ccc1-c1noc(-c2ccc3c(c2)nnn3C(C)C)n1 [Compound 532, N-(3-methoxy-4-{5-[1-(propan-2-yl)-1H-1,2,3-benzotriazol-5-yl]-1,2,4-oxadiazol-3-yl}phenyl)acetamide] | > 75% | >6.5 | < 75% | >5
14 | COc1cc(NC(C)=O)ccc1-c1noc(-c2ccc3nonc3c2)n1 [Compound 533, N-{4-[5-(2,1,3-benzoxadiazol-5-yl)-1,2,4-oxadiazol-3-yl]-3-methoxyphenyl}acetamide] | – | <6.5 | – | <5
15 | COCCn1cc(-c2ccccc2C)cc1-c1ccc2c(c1)nnn2C(C)C [Compound 534, 5-[1-(2-methoxyethyl)-4-(2-methylphenyl)-1H-pyrrol-2-yl]-1-(propan-2-yl)-1H-1,2,3-benzotriazole] | < 75% | <6.5 | < 75% | <5
16 | CC1CC(=O)c2ccc(-c3nc(-c4cccnc4)no3)cc2O1 (stereo not drawn) [Compound 535, 2-methyl-7-[3-(pyridin-3-yl)-1,2,4-oxadiazol-5-yl]-3,4-dihydro-2H-1-benzopyran-4-one] | – | <6.5 | – | >5
17 | CC1CC(=O)c2ccc(-c3nc(-c4ccncc4)no3)cc2O1 (stereo not drawn) [Compound 536, 2-methyl-7-[3-(pyridin-4-yl)-1,2,4-oxadiazol-5-yl]-3,4-dihydro-2H-1-benzopyran-4-one] | – | <6.5 | – | >5
18 | CCC1(CC)CC(=O)c2cc(-c3nc(-c4cncc(C(N)=O)c4)no3)ccc2O1 [Compound 537, 5-(5-(2,2-diethyl-4-oxochroman-6-yl)-1,2,4-oxadiazol-3-yl)nicotinamide] | – | >6.5 | – | >5
19 | CCC1(CC)CC(=O)c2cc(-c3nc(-c4cncc(NC(C)=O)c4)no3)ccc2O1 [Compound 538, N-(5-(5-(2,2-diethyl-4-oxochroman-6-yl)-1,2,4-oxadiazol-3-yl)pyridin-3-yl)acetamide] | – | >6.5 | – | >5
20 | CCC1(CC)CC(=O)c2cc(-c3nc(-c4ccc5[nH]c(=O)[nH]c5c4)no3)ccc2O1 [Compound 539, 5-(5-(2,2-diethyl-4-oxochroman-6-yl)-1,2,4-oxadiazol-3-yl)-1H-benzo[d]imidazol-2(3H)-one] | – | >6.5 | – | >5
21 | Cc1nccnc1-c1nc(-c2ccc3c(c2)nnn3CC(C)(C)CO)no1 [Compound 540, 2,2-dimethyl-3-(5-(5-(3-methylpyrazin-2-yl)-1,2,4-oxadiazol-3-yl)-1H-benzo[d][1,2,3]triazol-1-yl)propan-1-ol] | – | <6.5 | – | <5

The remaining lines, values ahead:

Row | Emax [1] | hS1P1 cAMP pEC50 [1] | Emax [2] | hS1P1 B-arrestin2 pEC50 [2] | SMILES
22 | – | <6.5 | – | <5 | Cc1ccncc1-c1nc(-c2ccc3c(c2)nnn3CC(C)(C)CO)no1 [Compound 541, 2,2-dimethyl-3-(5-(5-(4-methylpyridin-3-yl)-1,2,4-oxadiazol-3-yl)-1H-benzo[d][1,2,3]triazol-1-yl)propan-1-ol]
23 | – | <6.5 | – | >5 | CC(C)n1nnc2cc(-c3cc(-c4ccccc4F)c[nH]3)ccc21 [Compound 542, 5-[4-(2-fluorophenyl)-1H-pyrrol-2-yl]-1-(propan-2-yl)-1H-1,2,3-benzotriazole]
24 | < 75% | >6.5 | < 75% | <5 | CC(C)n1nnc2cc(-c3c[nH]c(-c4ccccc4)c3)ccc21 [Compound 543, 5-(5-phenyl-1H-pyrrol-3-yl)-1-(propan-2-yl)-1H-1,2,3-benzotriazole]
25 | – | <6.5 | – | >5 | CC(C)n1nnc2cc(-c3cc(-c4ccccc4)n(C)c3)ccc21 [Compound 544, 5-(1-methyl-5-phenyl-1H-pyrrol-3-yl)-1-(propan-2-yl)-1H-1,2,3-benzotriazole]
26 | > 75% | >6.5 | > 75% | >5 | CCC1(CC)CC(=O)c2cc(-c3nc(-c4cncc(NS(C)(=O)=O)c4)no3)ccc2O1 [Compound 545, N-(5-(5-(2,2-diethyl-4-oxochroman-6-yl)-1,2,4-oxadiazol-3-yl)pyridin-3-yl)methanesulfonamide]
27 | – | >6.5 | – | >5 | CCC1(CC)CC(=O)c2cc(-c3nc(-c4cnccc4C)no3)ccc2O1 [Compound 549, 2,2-diethyl-6-(3-(4-methylpyridin-3-yl)-1,2,4-oxadiazol-5-yl)chroman-4-one]
28 | – | <6.5 | – | >5 | CCC1(CC)CC(=O)c2cc(-c3nc(-c4ccc(C)nc4)no3)ccc2O1 [Compound 550, 2,2-diethyl-6-(3-(6-methylpyridin-3-yl)-1,2,4-oxadiazol-5-yl)chroman-4-one]
29 | – | >6.5 | – | >5 | CCC1(CC)CC(=O)c2cc(-c3nc(-c4cncc(F)c4)no3)ccc2O1 [Compound 551, 2,2-diethyl-6-(3-(5-fluoropyridin-3-yl)-1,2,4-oxadiazol-5-yl)chroman-4-one]
30 | – | <6.5 | – | <5 | CCC1(CC)CC(=O)c2cc(-c3ncc(-c4ccnc(O)c4)cn3)ccc2O1 [Compound 552, 2,2-diethyl-6-(5-(2-hydroxypyridin-4-yl)pyrimidin-2-yl)chroman-4-one]
31 | – | <6.5 | – | >5 | CCC1(CC)CC(=O)c2cc(-c3nc(-c4cccc(OC)n4)no3)ccc2O1 [Compound 553, 2,2-diethyl-6-[3-(6-methoxypyridin-2-yl)-1,2,4-oxadiazol-5-yl]-3,4-dihydro-2H-1-benzopyran-4-one]
